Reference: patent US7709507B2 (Allergan, Inc., priority 2006, dated 2010)
Like-named read-outs stand apart in the source and are kept apart here.

What was measured:
Assay type in all cases: cell-based
[1] = target: T1, alpha2C receptor (Homo sapiens, UniProt P18825); assay: Receptor Selection and Amplification Technology (RSAT) assay, Alpha 2C; conditions: for Alpha 2C IA (intrinsic activity): ratio of maximal effect to that of standard full agonist brimonidine (UK14304)
T1 construct: expressed in transfected cells; host or cells: NIH-3T3 cells
T1 sequence (P18825 1-462): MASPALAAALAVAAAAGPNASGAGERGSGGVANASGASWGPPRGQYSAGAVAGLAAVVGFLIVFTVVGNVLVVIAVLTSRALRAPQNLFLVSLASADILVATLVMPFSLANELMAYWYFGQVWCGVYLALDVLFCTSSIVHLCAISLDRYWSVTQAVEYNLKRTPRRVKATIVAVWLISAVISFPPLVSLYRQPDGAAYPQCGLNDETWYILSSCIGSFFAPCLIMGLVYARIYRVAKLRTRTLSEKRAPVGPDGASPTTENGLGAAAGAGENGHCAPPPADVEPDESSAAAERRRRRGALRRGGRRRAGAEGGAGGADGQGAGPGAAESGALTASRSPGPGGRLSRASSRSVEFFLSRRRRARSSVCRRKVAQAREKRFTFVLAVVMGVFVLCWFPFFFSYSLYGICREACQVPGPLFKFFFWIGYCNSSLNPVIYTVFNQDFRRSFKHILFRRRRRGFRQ
Method: (§1) Receptor Selection and Amplification Technology (RSAT) Assay
(§2) The RSAT assay measures a receptor-mediated loss of contact inhibition that results in selective proliferation of receptor-containing cells in a mixed population of confluent cells. The increase in cell number is assessed with an appropriate transfected marker gene such as β-galactosidase, the activity of which can be easily measured in a 96-well format. Receptors that activate the G protein, Gq, elicit this response. Alpha2 receptors, which normally couple to Gi, activate the RSAT response when coexpressed with a hybrid Gq protein that has a Gi receptor recognition domain, called Gq/i5.
(§3) NIH-3T3 cells are plated at a density of 2×10^6 cells in 15 cm dishes and maintained in Dulbecco's modified Eagle's medium supplemented with 10% calf serum. One day later, cells are cotransfected by calcium phosphate precipitation with mammalian expression plasmids encoding p-SV-β-galactosidase (5-10 μg), receptor (1-2 μg) and G protein (1-2 μg). 40 μg salmon sperm DNA may also be included in the transfection mixture. […] Cells are thawed and 100 μl added to 100 μl aliquots of various concentrations of drugs in triplicate in 96-well dishes. Incubations continue 72-96 hr at 37° C. After washing with phosphate-buffered saline, β-galactosidase enzyme activity is determined by adding 200 μl of the chromogenic substrate (consisting of 3.5 mM o-nitrophenyl-β-D-galactopyranoside and 0.5% nonidet P-40 in phosphate buffered saline), incubating overnight at 30° C. and measuring optical density at 420 nm. The absorbance is a measure of enzyme activity, which depends on cell number and reflects a receptor-mediated cell proliferation. The efficacy or intrinsic activity is calculated as a ratio of the maximal effect of the drug to the maximal effect of a standard full agonist for each receptor subtype. Brimonidine, also called UK14304, the chemical structure of which is shown below, is used as the standard agonist for the alpha2A, alpha2B and alpha2C receptors. The EC50 is the concentration at which the drug effect is half of its maximal effect.
(§4) EC50 values are nanomolar. NA stands for “not active” at concentrations less than 10 micromolar. IA stands for “intrinsic activity.”

[2] = target: T2, alpha2A receptor (Homo sapiens, UniProt P08913); assay: Receptor Selection and Amplification Technology (RSAT) assay, Alpha 2A; conditions: for Alpha 2A EC50: RSAT, transfected NIH-3T3 cells with Gq/i5, not active = at concentrations less than 10 micromolar
T2 construct: expressed in transfected cells; host or cells: NIH-3T3 cells
T2 sequence (P08913 1-465): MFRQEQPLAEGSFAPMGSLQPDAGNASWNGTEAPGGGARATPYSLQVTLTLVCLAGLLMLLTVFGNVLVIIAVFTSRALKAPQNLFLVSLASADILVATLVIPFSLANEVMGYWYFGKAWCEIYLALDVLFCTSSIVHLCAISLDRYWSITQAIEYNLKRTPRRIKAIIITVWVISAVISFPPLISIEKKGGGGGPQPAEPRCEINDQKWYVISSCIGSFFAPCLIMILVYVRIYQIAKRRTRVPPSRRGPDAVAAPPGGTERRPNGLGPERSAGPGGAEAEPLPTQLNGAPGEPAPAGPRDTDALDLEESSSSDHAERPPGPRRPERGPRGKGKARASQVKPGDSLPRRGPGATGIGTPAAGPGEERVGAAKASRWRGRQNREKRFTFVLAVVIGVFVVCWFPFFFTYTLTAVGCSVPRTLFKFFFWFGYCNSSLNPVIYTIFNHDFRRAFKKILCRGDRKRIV
Method: as §1, §2, §3, §4

[3] = target: T3, alpha2B receptor (Homo sapiens, UniProt P18089); assay: Receptor Selection and Amplification Technology (RSAT) assay, Alpha 2B; conditions: for EC50: transfected NIH-3T3 cells with Gq/i5, not active = at concentrations less than 10 micromolar; for Alpha 2B IA (intrinsic activity): ratio of maximal effect to that of standard full agonist brimonidine (UK14304)
T3 construct: expressed in transfected cells; host or cells: NIH-3T3 cells
T3 sequence (P18089 1-450): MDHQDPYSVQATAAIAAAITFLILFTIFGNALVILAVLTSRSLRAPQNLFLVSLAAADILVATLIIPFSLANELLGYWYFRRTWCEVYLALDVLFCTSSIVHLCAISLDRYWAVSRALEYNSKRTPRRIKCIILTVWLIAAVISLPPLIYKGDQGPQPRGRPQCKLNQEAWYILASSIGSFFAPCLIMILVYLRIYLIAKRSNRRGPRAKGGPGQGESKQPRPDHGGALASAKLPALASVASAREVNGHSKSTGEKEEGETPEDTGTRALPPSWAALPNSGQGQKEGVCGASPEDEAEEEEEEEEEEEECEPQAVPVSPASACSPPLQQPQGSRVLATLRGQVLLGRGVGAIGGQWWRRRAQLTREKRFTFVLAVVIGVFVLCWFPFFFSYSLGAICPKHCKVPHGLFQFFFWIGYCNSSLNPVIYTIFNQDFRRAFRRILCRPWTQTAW
Method: as §1, §2
NIH-3T3 cells are plated at a density of 2×10^6 cells in 15 cm dishes and maintained in Dulbecco's modified Eagle's medium supplemented with 10% calf serum. One day later, cells are cotransfected by calcium phosphate precipitation with mammalian expression plasmids encoding p-SV-β-galactosidase (5-10 μg), receptor (1-2 μg) and G protein (1-2 μg). 40 μg salmon sperm DNA may also be included in the transfection mixture. Fresh media is added on the following day and 1-2 days later, cells are harvested and frozen in 50 assay aliquots. Cells are thawed and 100 μl added to 100 μl aliquots of various concentrations of drugs in triplicate in 96-well dishes. Incubations continue 72-96 hr at 37° C. After washing with phosphate-buffered saline, β-galactosidase enzyme activity is determined by adding 200 μl of the chromogenic substrate (consisting of 3.5 mM o-nitrophenyl-β-D-galactopyranoside and 0.5% nonidet P-40 in phosphate buffered saline), incubating overnight at 30° C. and measuring optical density at 420 nm. The absorbance is a measure of enzyme activity, which depends on cell number and reflects a receptor-mediated cell proliferation. The efficacy or intrinsic activity is calculated as a ratio of the maximal effect of the drug to the maximal effect of a standard full agonist for each receptor subtype. Brimonidine, also called UK14304, the chemical structure of which is shown below, is used as the standard agonist for the alpha2A, alpha2B and alpha2C receptors. The EC50 is the concentration at which the drug effect is half of its maximal effect.
The results of the RSAT assay with several exemplary compounds of the invention are disclosed in Table 1 above together with the chemical formulas of these exemplary compounds. EC50 values are nanomolar. NA stands for “not active” at concentrations less than 10 micromolar. IA stands for “intrinsic activity.”

[4] = RSAT, transfected NIH-3T3 cells with Gq/i5, not active = at concentrations less than 10 micromolar
[5] = RSAT, transfected NIH-3T3 cells with Gq/i5, not active = at concentrations less than 10 micromolar, read-out: Alpha 2C EC50

| Compound | Alpha 2C EC50 [1, 4] | Alpha 2A EC50 [2] | EC50 ([3]; RSAT, read-out: Alpha 2B EC50) | Alpha 2B IA (intrinsic activity) [3] | EC50 [1, 5] | Alpha 2C IA (intrinsic activity) [1] | EC50 [1] | EC50 [2] | Alpha 2A IA (intrinsic activity) ([2]; ratio of maximal effect to that of standard full agonist brimonidine (UK14304)) | EC50 ([3]; Alpha 2B EC50, RSAT) |
| --- | --- | --- | --- | --- | --- | --- | --- | --- | --- | --- |
| O=C(NCCF)NC(Cc1ccccc1)C1CCCC1 (centres unmarked) [1-(1-cyclopentyl-2-phenylethyl)-3-(2-fluoroethyl)urea] | not active | not active | 378 nM | 0.6 | – | – | – | – | – | – |
| Cc1cccc(C(Cc2ccccn2)NC(=O)NCCF)c1 (centres unmarked) [1-(2-fluoro-ethyl)-3-(2-pyridin-2-yl-1-m-tolyl-ethyl)-urea] | not active | not active | 135 nM | 0.87 | – | – | – | – | – | – |
| Cc1cccc(C(Cc2cccc(F)c2F)NC(=O)NCCF)c1 (centres unmarked) [1-[2-(2,3-difluoro-phenyl)-1-m-tolyl-ethyl]-3-(2-fluoro-ethyl)-urea] | not active | not active | 20.5 nM | 1.02 | – | – | – | – | – | – |
| Cc1cccc(C(Cc2cc(F)ccc2F)NC(=O)NCCF)c1 (centres unmarked) [1-[2-(2,5-difluoro-phenyl)-1-m-tolyl-ethyl]-3-(2-fluoro-ethyl)-urea] | not active | not active | 21.3 nM | 1.02 | – | – | – | – | – | – |
| O=C(NCCF)NC(Cc1ccccc1)c1cccs1 (centres unmarked) [1-(2-fluoroethyl)-3-[2-phenyl-1-(2-thienyl)ethyl]urea] | – | – | – | 0.99 | – | 0.35 | 119 nM | 346 nM | 0.35 | 28.5 nM |
| O=C(NCCF)NC(Cc1ccccc1)c1ccccc1 (centres unmarked) [1-(1,2-diphenyl-ethyl)-3-(2-fluoro-ethyl)-urea] | – | not active | – | 0.96 | – | 0.32 | 345 nM | – | – | 33.8 nM |
| O=C(NCCF)NC(Cc1ccccc1F)c1cccnc1 (centres unmarked) [1-(2-fluoro-ethyl)-3-[2-(2-fluoro-phenyl)-1-pyridin-3-yl-ethyl]-urea] | not active | not active | 747 nM | 0.78 | – | – | – | – | – | – |
| Cc1ccccc1CC(NC(=O)NCCF)c1cccc(Cl)c1 (centres unmarked) | – | not active | 26.8 nM | 0.94 | 787 nM | 0.38 | – | – | – | – |
| Cc1cccc(C(Cc2ccccc2F)NC(=O)NCCF)c1 (centres unmarked) | not active | not active | 13.8 nM | 1.02 | – | – | – | – | – | – |
| O=C(NCCF)NC(Cc1ccccc1F)c1ccncc1 (centres unmarked) [1-(2-fluoro-ethyl)-3-[2-(2-fluoro-phenyl)-1-pyridin-4-yl-ethyl]-urea] | not active | not active | 2120 nM | 0.53 | – | – | – | – | – | – |
| O=C(NCCF)NC(Cc1ccc(F)c(F)c1)c1ccncc1 (centres unmarked) [1-[2-(3,4-difluoro-phenyl)-1-pyridin-4-yl-ethyl]-3-(2-fluoro-ethyl)-urea] | not active | not active | 3620 nM | 0.44 | – | – | – | – | – | – |
| Cc1cccc(C(Cc2cccs2)NC(=O)NCCF)c1 (centres unmarked) [1-(2-fluoro-ethyl)-3-(2-thiophen-2-yl-1-m-tolyl-ethyl)-urea] | not active | not active | 37 nM | 1.08 | – | – | – | – | – | – |

Second part, led by results:

| Alpha 2C EC50 [1, 4] | Alpha 2A EC50 [2] | EC50 ([3]; RSAT, read-out: Alpha 2B EC50) | Alpha 2B IA (intrinsic activity) [3] | EC50 [1, 5] | Compound | Alpha 2C IA (intrinsic activity) [1] | EC50 [1] | EC50 [2] | Alpha 2A IA (intrinsic activity) ([2]; ratio of maximal effect to that of standard full agonist brimonidine (UK14304)) | EC50 ([3]; Alpha 2B EC50, RSAT) |
| --- | --- | --- | --- | --- | --- | --- | --- | --- | --- | --- |
| – | not active | 407 nM | 0.64 | 700 nM | O=C(NCCF)NC(Cc1ccccc1)c1ccccc1Cl (centres unmarked) [1-[1-(2-chlorophenyl)-2-phenylethyl]-3-(2-fluoroethyl)urea] | 0.34 | – | – | – | – |
| not active | not active | 146 nM | 0.82 | – | O=C(NCCF)NC(Cc1ccccc1)c1ccc(O)cc1 (centres unmarked) | – | – | – | – | – |
| not active | not active | 53.2 nM | 0.95 | – | Cc1cccc(C(Cc2cccnc2)NC(=O)NCCF)c1 (centres unmarked) [1-(2-fluoro-ethyl)-3-(2-pyridin-3-yl-1-m-tolyl-ethyl)-urea] | – | – | – | – | – |
| not active | not active | 1990 nM | 0.41 | – | O=C(NCCF)NC(Cc1cccc(F)c1)c1cccnc1 (centres unmarked) [1-(2-fluoro-ethyl)-3-[2-(3-fluoro-phenyl)-1-pyridin-3-yl-ethyl]-urea] | – | – | – | – | – |
| not active | not active | 1060 nM | 0.3 | – | COc1ccc(C(Cc2ccccc2)NC(=O)NCCF)cc1 (centres unmarked) [1-(2-fluoroethyl)-3-[1-(4-methoxyphenyl)-2-phenylethyl]urea] | – | – | – | – | – |
| not active | not active | 513 nM | 0.77 | – | O=C(NCCF)NC(Cc1ccccc1)c1ccco1 (centres unmarked) [1-(2-fluoro-ethyl)-3-(1-furan-2-yl-2-phenyl-ethyl)-urea] | – | – | – | – | – |
